Test results from patent US6875768B1, “Phthalamide derivatives, intermediates in the production thereof, and agricultural/horticultural insecticides and method for using the same” (Nihon Nohyako Co., Ltd., priority 1999, dated 2005).

Experiments:
[1] = system: diamond back moth (Plutella xylostella); assay type: in vivo; settings: 1,000 ppm; Chinese cabbage seedling with eggs immersed about 30 seconds; counted six days after the immersion; 25° C.
Text: Insecticidal effect on diamond back moth (Plutella xylostella)
Adult diamond back moths were released and allowed to oviposit on a Chinese cabbage seedling. […] Six days after the immersion, the hatched insects were counted. […] [formula] Criterion • A - - - Mortality 100% • B - - - Mortality 99-90% • C - - - Mortality 89-80% • D - - - Mortality 79-50%

[2] = system: Common cutworm (Spodoptera litura); assay type: in vivo; settings: 500 ppm; cabbage leaf immersed about 30 seconds; second-instar larvae; eight days after the inoculation; 25° C.
Text: Insecticidal Effect on Common cutworm (Spodoptera litura)

[3] = system: rice leafroller (Cnaphalocrosis medinalis); settings: 500 ppm; rice lamina immersed about 30 seconds; third-instar larvae; four days after the inoculation; 25° C., humidity 70%
Method: Insecticidal effect on rice leafroller (Cnaphalocrosis medinalis)
After air-dryness, the lamina was placed in a plastic Petri dish with a diameter of 9 cm whose bottom had been covered with a wetted filter paper. The lamina was inoculated with third-instar larvae of rice leafroller, after which the dish was allowed to stand in a room thermostatted at 25° C. and having a humidity of 70%. Four days after the inoculation, the dead and alive were counted and the insecticidal effect was judged according to the criterion shown in Test Example 1. The test was carried out with triplicate groups of 10 insects.

Measured: insecticidal effect (activity ranking by mortality)

CCN(CC)C(=O)c1c(I)cccc1C(=O)Nc1ccc(Cl)cn1 [Q26-32]
B or higher: all assays above

CC(C)NC(=O)c1c(C(=O)Nc2cccnc2)cccc1[N+](=O)[O-] [Q27-164]
B or higher: all assays above

CC(C)NC(=O)c1cccc(Cl)c1C(=O)Nc1ccc(Oc2ccc(Br)cc2)nc1 [Q27-124]
B or higher: all assays above

CC(C)NC(=O)c1c(Cl)cccc1C(=O)Nc1cnccc1SC(C)C [Q27-31]
B or higher: all assays above

CC(C)NC(=O)c1c(Cl)cccc1C(=O)Nc1ccc(Oc2ccc(Cl)cc2Cl)nc1 [Q27-30]
B or higher: all assays above

CC(C)NC(=O)c1ccccc1C(=O)Nc1ncc(C(F)(F)F)cc1Cl [Q26-1]
B or higher: all assays above

CC(C)(C)NC(=O)c1c(I)cccc1C(=O)Nc1ccc(C(F)(F)C(F)(F)F)nc1 [Q27-140]
B or higher: all assays above

Cc1nc(C(F)(C(F)(F)F)C(F)(F)F)ccc1NC(=O)c1cccc(I)c1C(=O)NC(C)(C)C [Q27-143]
B or higher: all assays above

CCN(CC)C(=O)c1c(I)cccc1C(=O)Nc1ncc(C(F)(F)C(F)(F)F)cc1C [Q26-29]
B or higher: all assays above

Cc1cc(C(F)(C(F)(F)F)C(F)(F)F)ncc1NC(=O)c1cccc(I)c1C(=O)NC(C)C [Q27-137]
B or higher: all assays above

CC(C)NC(=O)c1c(I)cccc1C(=O)Nc1ccc(Cl)nc1 [Q27-133]
B or higher: all assays above

Cc1cc(C(F)(C(F)(F)F)C(F)(F)F)ncc1NC(=O)c1cccc(I)c1C(=O)NC(C)(C)C [Q27-142]
B or higher: all assays above

CC(C)NC(=O)c1cccc(Cl)c1C(=O)Nc1ccc(Oc2ccc(Cl)cc2Cl)nc1 [Q27-125]
B or higher: all assays above

CCN(CC)C(=O)c1c(I)cccc1C(=O)Nc1ccc(Br)cn1 [Q26-33]
B or higher: all assays above

CSCC(C)NC(=O)c1c(I)cccc1C(=O)Nc1ccc(C(F)(C(F)(F)F)C(F)(F)F)nc1C (stereo not drawn) [Q27-145]
B or higher: all assays above

CCN(CC)C(=O)c1c(I)cccc1C(=O)Nc1ncc(C(F)(F)C(F)(F)C(F)(F)F)cc1C [Q26-30]
B or higher: all assays above

CCN(CC)C(=O)c1c(I)cccc1C(=O)Nc1ncc(C(F)(C(F)(F)F)C(F)(F)F)cc1C [Q26-31]
B or higher: all assays above

CC(C)CSc1ccncc1NC(=O)c1cccc(Cl)c1C(=O)NC(C)C [Q27-32]
B or higher: all assays above

CCN(CC)C(=O)c1c(I)cccc1C(=O)Nc1ccc(Oc2ccc(Br)cc2)nc1 [Q27-132]
B or higher: all assays above
